Test results reported in patent US9555050B2 (BIOGEN MA INC., priority 2012, dated 2017).

target: T1, Human ATX protein (Homo sapiens, UniProt Q13822); assay: ATX biochemical FRET assay with FS-3 substrate; conditions: FS-3 substrate 2 μM, ATX 1.0 μg/mL, 30 min preincubation, 2 hours at room temperature
T1 construct: made in house
Source text: ATX (Autotaxin) is a 125 KDa glycoprotein with lysophospholipase D (LPLD) activity that generates the bioactive lipid lysophosphatidic acid (LPA) from lysophosphatidylcholine (LPC). The ATX biochemical assay utilizes a FRET (fluorescence resonance energy transfer) technology platform. The fluorescence signal of FRET substrate FS-3 is quenched due to intra-molecular FRET of a fluorophore to a non-fluorescing quencher (Ferguson, C. G., et al., Org Lett. 2006 May 11; 8(10): 2023-2026, which is incorporated by reference in its entirety). ATX catalyzes the hydrolysis of the substrate which separates the dabsyl quencher from the fluorescein reporter, which becomes fluorescent. The reaction is monitored by a SpectraMax M5 (Molecular Devices, Sunnyvale, Calif.) with at excitation wavelength 485 nm and emission wavelength […].
Fatty acid free-BSA (Sigma A8806): 10 mg/mL in H2O, stored at 4° C.
2×ATX assay buffer: 100 mM Tris, 280 mM NaCl, 10 mM KCl, 2 mM CaCl2, 2 mM MgCl2, pH 7.4.
Human ATX protein: expressed and purified in house. Stored at −80° C.
Substrate FS-3 (Echelon, L-2000): 100 μg in 77.74.L H2O (1 mM stock), stored at −20° C.
384-well flat bottom plates—Corning #3575.
Compound dilution—All compounds were provided at 10 mM in 100% DMSO. In the first well, 2 μL of 10 mM compound was added to 78 μL of DMSO (1:40 dilution). In subsequent wells 3-fold dilution (total 10 dilutions) were performed.
1×ATX assay buffer was made up with a final concentration of 1 mg/mL fatty acid free-BSA using 2×ATX assay buffer, 10 mg/ml fatty acid free-BSA and ddH2O.
ATX protein was diluted with 1×ATX assay buffer to a concentration of 1.32 μg/mL (1.32×). 38 μL was added per well to the assay plate. The final concentration of ATX in the reaction as 1.0 μg/mL.
2 μL per well of compounds was transferred to provide the desired concentration. The plate was centrifuged, then incubated at room temperature for 30 minutes on the shaker.
FS-3 was diluted with 1×ATX assay buffer to a concentration of FS-3 of 10 μM (5×). Then, 10 μL was added per well to the assay plate. The final concentration of FS-3 in the reaction was 2 μM. The plate was centrifuged. The plate was kept shaking at room temperature for 2 hours. Because FS-3 substrate is light sensitive, plates were kept covered and protected from light.
Fluorescence was measured using SpectraMax M5 (excitation at 485 nm/emission at 538 nm, top read).

| IC50 [nM] | SMILES |
| --- | --- |
| ≤ 100 | CCC(c1ccc2c(C(F)F)c(O[C@H]3CC[C@@H](C)CC3)ccc2c1)N1CCC(C(=O)O)CC1 (relative stereo) [Example 58, 1-(1-(6-((cis-4-Methylcyclohexyl)oxy)-5-(difluoromethyl)naphthalen-2-yl)propyl)piperidine-4-carboxylic acid] |
| ≤ 250 | O=C(O)CC1CN(Cc2ccc3c(C(F)(F)F)c(O[C@H]4CC[C@@H](C(F)(F)F)CC4)ccc3c2)C1 [Example 62, 2-(1-((5-(trifluoromethyl)-6-(4-cis-(trifluoromethyl)cyclohexyloxy)naphthalene-2-yl)methyl)azetidine-3-yl)acetic acid] |
| ≤ 500 | O=C(O)CCC1CCC(NCc2ccc3c(C(F)(F)F)c(OC4CCC(C(F)(F)F)CC4)ccc3c2)CC1 (stereo not drawn) [Example 73, 3-((4-((5-(trifluoromethyl)-6-(cis-4-(trifluoromethyl)cyclohexyloxy)naphthalene-2-yl)methyl)amino)cyclohexyl)propionic acid] |
| ≤ 100 | C[C@H]1CC[C@@H](Oc2ccc3cc(CN4CCC(C(=O)O)CC4)ccc3c2C(F)F)CC1 [Example 13, 1-((5-(Difluoromethyl)-6-((cis-4-methylcyclohexyl)oxy)naphthalen-2-yl)methyl)piperidine-4-carboxylic acid] |
| ≤ 500 | O=C(O)CCC1CCN(Cc2ccc3c(C(F)(F)F)c(O[C@H]4CC[C@@H](C(F)(F)F)CC4)ccc3c2)CC1 [Example 83, 3-(1-((2-(cis-4-(trifluoromethyl)cyclohexyloxy)-1-(trifluoromethyl)naphthalen-6-yl)methyl)piperidine-4-yl)propionic acid] |
| ≤ 100 | C[C@H]1CC[C@@H](Oc2ccc3cc(CN4CC(CC(=O)O)C4)ccc3c2C(F)F)CC1 [Example 97, 1-((5-(Difluoromethyl)-6-((cis-4-methylcyclohexyl)oxy)naphthalen-2-yl)methyl)azetidine-3-acetic acid] |
| ≤ 250 | O=C(O)C[C@H]1CCCN(Cc2ccc3c(C(F)(F)F)c(O[C@H]4CC[C@@H](C(F)(F)F)CC4)ccc3c2)C1 [Example 80, 2-((R)-1-((2-(cis-4-(trifluoromethyl)cyclohexyloxy)-1-(trifluoromethyl)naphthalen-6-yl)methyl)piperidin-3-yl)acetic acid] |
| ≤ 250 | CC(C)C(NC1CC(C(=O)O)C1(C)C)c1ccc2c(C(F)(F)F)c(O[C@H]3CC[C@@H](C(F)(F)F)CC3)ccc2c1 (relative stereo) [Example 39, 2,2-dimethyl-3-(2-methyl-1-(5-(trifluoromethyl)-6-((cis)-4-(trifluoromethyl)cyclohexyloxy)naphthalen-2-yl)propylamino)cyclobutanecarboxylic acid] |
| ≤ 250 | O=C(O)C[C@H]1CN(Cc2ccc3c(C(F)(F)F)c(O[C@H]4CC[C@@H](C(F)(F)F)CC4)ccc3c2)CCO1 [Example 82, 2-((S)-4-((2-(cis-4-(trifluoromethyl)cyclohexyloxy)-1-(trifluoromethyl)naphthalen-6-yl)methyl)morpholin-2-yl)acetic acid] |
| ≤ 250 | O=C(O)c1ccc(CNCc2ccc3c(C(F)(F)F)c(O[C@H]4CC[C@@H](C(F)(F)F)CC4)ccc3c2)cn1 [Example 75, 5-((((5-(trifluoromethyl)-6-((cis-4-(trifluoromethyl)cyclohexyl)oxy)-naphthalen-2-yl)methyl)amino)methyl)pyridine-2-carboxylic acid] |
| ≤ 250 | C[C@H]1CC[C@@H](Oc2ccc3cc(CN4CCCC(CC(=O)O)C4)ccc3c2C(F)(F)F)CC1 (stereo partly drawn) [Example 9, 2-(1-((6-((cis-4-methylcyclohexyl)oxy)-5-(trifluoromethyl)naphthalen-2-yl)methyl)piperidin-3-yl)acetic acid] |
| ≤ 100 | CC[C@@H](c1ccc2c(C(F)F)c(O[C@H]3CC[C@@H](C)CC3)ccc2c1)N1CCC[C@H](CC(=O)O)C1 [Example 93, 2-((3R)-1-((S)-1-(6-((cis-4-Methylcyclohexyl)oxy)-5-(difluoromethyl)naphthalen-2-yl)propyl)piperidin-3-yl)acetic acid] |
| ≤ 100 | O=P(O)(O)CCCNCc1ccc2c(C(F)(F)F)c(O[C@H]3CC[C@@H](C(F)(F)F)CC3)ccc2c1 [Example 63, 3-(((5-(trifluoromethyl)-6-(cis-4-(trifluoromethyl)cyclohexyloxy)naphthalene-2-yl)methyl)amino)propylphosphonic acid] |
| ≤ 250 | O=C(O)C[C@H]1CCCN(Cc2ccc3c(C(F)(F)F)c(O[C@H]4CC[C@@H](C(F)(F)F)CC4)ccc3n2)C1 [Example 14, 2-((R)-1-(((5-(trifluoromethyl)-6-(cis-4-(trifluoromethyl)cyclohexyl)oxy)quinolin-2-yl)methyl)piperidin-3-yl)acetic acid] |
| ≤ 100 | O=C(NCCCP(=O)(O)O)c1ccc2c(C(F)(F)F)c(OCc3cc(Cl)cc(Cl)c3)ccc2c1 [Example 18, (3-(6-((3,5-dichlorobenzyl)oxy)-5-(trifluoromethyl)-2-naphthamido)propyl)phosphonic acid] |
| ≤ 500 | CC(C)CC(NC1CC(C(=O)O)C1(C)C)c1ccc2c(C(F)(F)F)c(O[C@H]3CC[C@@H](C)CC3)ccc2c1 (relative stereo) [Example 90, 2,2-dimethyl-3-(1-(6-((cis)-4-methylcyclohexyloxy)-5-(trifluoromethyl)naphthalen-2-yl)-3-methylbutylamino)cyclobutanecarboxylic acid] |
| ≤ 250 | O=C(O)C1CCN(Cc2ccc3c(C(F)F)c(O[C@H]4CC[C@@H](C(F)(F)F)CC4)ccc3c2)CC1 [Example 21, 1-((5-(difluoromethyl)-6-((cis-4-(trifluoromethyl)cyclohexyl)oxy)naphthalen-2-yl)methyl)piperidine-4-carboxylic acid] |
| ≤ 100 | CC[C@H](c1ccc2c(C(F)F)c(O[C@H]3CC[C@@H](C)CC3)ccc2c1)N1CCC[C@H](CC(=O)O)C1 [Example 94, 2-((3R)-1-((R)-1-(6-((cis-4-Methylcyclohexyl)oxy)-5-(difluoromethyl)naphthalen-2-yl)propyl)piperidin-3-yl)acetic acid] |
| ≤ 100 | CC(c1ccc2c(C(F)F)c(O[C@H]3CC[C@@H](C)CC3)ccc2c1)N1CCC(C(=O)O)CC1 (relative stereo) [Example 55, 1-(1-(6-((cis-4-Methylcyclohexyl)oxy)-5-(difluoromethyl)naphthalen-2-yl)ethyl)piperidine-4-carboxylic acid] |
| ≤ 250 | FC(F)(F)c1c(O[C@H]2CC[C@@H](C(F)(F)F)CC2)ccc2cc(CN3CCC(c4nn[nH]n4)CC3)ccc12 [Example 5, 4-(2H-tetrazol-5-yl)-1-((5-(trifluoromethyl)-6-((cis-4-(trifluoromethyl)cyclohexyl)oxy)naphthalen-2-yl)methyl)piperidine] |
| ≤ 500 | CC(NCc1ccc2c(C(F)(F)F)c(O[C@H]3CC[C@@H](C(F)(F)F)CC3)ccc2c1)C1CCC(C(=O)O)CC1 (relative stereo) [Example 41, 4-(1-((5-(trifluoromethyl)-6-((cis)-4-(trifluoromethyl)cyclohexyloxy)naphthalen-2-yl)methylamino)ethyl)cyclohexanecarboxylic acid] |
| ≤ 100 | CCC(c1ccc2c(C(F)(F)F)c(O[C@H]3CC[C@@H](CC)CC3)ccc2c1)N1CCC[C@H](CC(=O)O)C1 (stereo partly drawn) [Example 7, 2-((3R)-1-(1-(6-((cis-4-ethylcyclohexyl)oxy)-5-(trifluoromethyl)naphthalen-2-yl)propyl)piperidin-3-yl)acetic acid] |
| ≤ 250 | O=C(O)[C@H]1CCCN(Cc2ccc3c(C(F)(F)F)c(O[C@H]4CC[C@@H](C(F)(F)F)CC4)ccc3c2)C1 [Example 26, (S)-1-((5-(trifluoromethyl)-6-((cis)-4-(trifluoromethyl)cyclohexyloxy)naphthalen-2-yl)methyl)piperidine-3-carboxylic acid] |
| ≤ 250 | CC(NC1CC(C(=O)O)C1(C)C)c1ccc2c(C(F)(F)F)c(O[C@H]3CC[C@@H](C(F)(F)F)CC3)ccc2n1 (stereo partly drawn) [Example 15, 2,2-dimethyl-3-(((1-(5-(trifluoromethyl)-6-(cis-4-(trifluoromethyl)cyclo-hexyl)oxy)quinolin-2-yl)ethyl)amino)cyclobutanecarboxylic acid] |
| ≤ 250 | O=C(O)C1CCN(Cc2ccc3c(C(F)(F)F)c(N[C@H]4CC[C@@H](C(F)(F)F)CC4)ccc3c2)CC1 [Example 22, 1-((5-(trifluoromethyl)-6-((cis-4-(trifluoromethyl)cyclohexyl)amino)naphthalen-2-yl)methyl)piperidine-4-carboxylic acid] |
